# PubChem BioAssay (NCI)
#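 Each compound was tested at five concentrations against cells in 96-well plates for 48 hours. At the TGI there is no net growth.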
# Columns and labels:
# Assay in all cases: DTP human tumour cell line panel, 48 h
# [1] = system: HOP-62 NSCLC
# [2] = system: RXF 393 renal
# [3] = system: SF-295 CNS
# [4] = system: U251 CNS
# [5] = system: MCF7 breast
# [6] = system: A549 NSCLC
# [7] = system: SNB-19 CNS
# [8] = system: SF-539 CNS
# [9] = system: SK-MEL-5 melanoma
# [10] = system: SK-MEL-2 melanoma
# [11] = system: HS 578T breast
# [12] = system: SNB-75 CNS
# [13] = system: HOP-92 NSCLC
# [14] = system: HT29 colon
# [15] = system: OVCAR-8 ovarian
# [16] = system: CCRF-CEM leukemia
# [17] = system: DU-145 prostate
# [18] = system: ACHN renal
# [19] = system: CAKI-1 renal
# [20] = system: OVCAR-4 ovarian
# [21] = system: TK-10 renal
# [22] = system: UACC-257 melanoma
# [23] = system: COLO 205 colon
# [24] = system: MDA-MB-435
# [25] = system: MDA-N
# [26] = system: SK-OV-3 ovarian
# [27] = system: MOLT-4 leukemia
# [28] = system: LOX IMVI melanoma
# [29] = system: MDA-MB-231 breast
# [30] = system: NCI-H226 lung
# [31] = system: K-562 leukemia
# [32] = system: SF-268 CNS
# [33] = system: EKVX NSCLC
# [34] = system: BT-549 breast
# [35] = system: SR leukemia
# [36] = system: 786-0 renal
# [37] = system: RPMI-8226 leukemia
# [38] = system: SK-MEL-28 melanoma
# [39] = system: UACC-62 melanoma
# [40] = system: HCT-15 colon
# [41] = system: HCC-2998 colon
# [42] = system: HCT-116 colon
# [43] = system: NCI/ADR-RES ovarian
# [44] = system: PC-3 prostate
# [45] = system: IGROV1 ovarian
# [46] = system: UO-31 renal
# [47] = system: NCI-H460 lung
# [48] = system: A498 renal
# [49] = system: SW-620 colon
# [50] = system: SN12C renal
# [51] = system: NCI-H23 lung
# [52] = system: OVCAR-3 ovarian
# [53] = system: OVCAR-5 ovarian
# [54] = system: HL-60(TB) leukemia
# [55] = system: MALME-3M melanoma
# [56] = system: NCI-H522 lung
# [57] = system: M14 melanoma
# [58] = system: KM12 colon
smiles,measurement,setting,value
CC(=O)NCCc1c(-c2[nH]c3ccccc3c2CCNC(C)=O)[nH]c2ccccc12,TGI,[1],> 100 µM
same,TGI,[2],> 100 µM
same,TGI,[3],> 100 µM
same,TGI,[4],> 100 µM
same,TGI,[5],> 100 µM
same,TGI,[6],> 100 µM
same,TGI,[7],> 100 µM
same,TGI,[8],> 100 µM
same,TGI,[9],> 100 µM
same,TGI,[10],> 100 µM
same,TGI,[11],> 100 µM
same,TGI,[12],> 100 µM
same,TGI,[13],> 100 µM
same,TGI,[14],> 100 µM
same,TGI,[15],> 100 µM
same,TGI,[16],> 100 µM
same,TGI,[17],> 100 µM
same,TGI,[18],> 100 µM
same,TGI,[19],> 100 µM
same,TGI,[20],> 100 µM
same,TGI,[21],> 100 µM
same,TGI,[22],> 100 µM
same,TGI,[23],> 100 µM
same,TGI,[24],> 100 µM
same,TGI,[25],> 100 µM
same,TGI,[26],> 100 µM
same,TGI,[27],> 100 µM
same,TGI,[28],> 100 µM
same,TGI,[29],> 100 µM
same,TGI,[30],> 100 µM
same,TGI,[31],> 100 µM
same,TGI,[32],> 100 µM
same,TGI,[33],> 100 µM
same,TGI,[34],> 100 µM
same,TGI,[35],> 100 µM
same,TGI,[36],> 100 µM
same,TGI,[37],> 100 µM
same,TGI,[38],> 100 µM
same,TGI,[39],> 100 µM
same,TGI,[40],> 100 µM
same,TGI,[41],> 100 µM
same,TGI,[42],> 100 µM
same,TGI,[43],> 100 µM
same,TGI,[44],> 100 µM
same,TGI,[45],> 100 µM
same,TGI,[46],> 100 µM
same,TGI,[47],> 100 µM
same,TGI,[48],> 100 µM
same,TGI,[49],> 100 µM
same,TGI,[50],> 100 µM
same,TGI,[51],> 100 µM
same,TGI,[52],> 100 µM
same,TGI,[53],> 100 µM
CC(=O)O[C@H]1CC2C(C3CCC(C(C)CCC(=O)O)[C@]31C)[C@H](OC(C)=O)C[C@@H]1CC3(CC[C@]21C)OOC1(CC[C@]2(C)C4C[C@H](OC(C)=O)[C@]5(C)C(C(C)CCC(=O)O)CCC5C4[C@H](OC(C)=O)C[C@@H]2C1)OO3 (some centres undefined),TGI,[54],3.65 µM
same,TGI,[1],3.97 µM
same,TGI,[3],4.72 µM
same,TGI,[4],2.59 µM
same,TGI,[5],12.3 µM
same,TGI,[6],5.19 µM
same,TGI,[7],> 100 µM
same,TGI,[9],3.11 µM
same,TGI,[10],3.64 µM
same,TGI,[11],4.1 µM
same,TGI,[14],> 100 µM
same,TGI,[15],4.97 µM
same,TGI,[16],9.87 µM
same,TGI,[17],4.48 µM
same,TGI,[55],3.13 µM
same,TGI,[18],3.44 µM
same,TGI,[19],5.15 µM
same,TGI,[20],9.84 µM
same,TGI,[21],6.8 µM
same,TGI,[22],4.68 µM
same,TGI,[23],4.24 µM
same,TGI,[24],4.31 µM
same,TGI,[25],5.91 µM
same,TGI,[26],11.6 µM
same,TGI,[27],13.1 µM
same,TGI,[28],3.11 µM
same,TGI,[56],3.03 µM
same,TGI,[29],3.85 µM
same,TGI,[30],4.21 µM
same,TGI,[31],> 100 µM
same,TGI,[32],4.01 µM
same,TGI,[33],9.67 µM
same,TGI,[34],4.11 µM
same,TGI,[35],9.55 µM
same,TGI,[36],9.32 µM
same,TGI,[37],14.7 µM
same,TGI,[38],> 100 µM
same,TGI,[40],6.39 µM
same,TGI,[41],3.8 µM
same,TGI,[42],3.85 µM
same,TGI,[43],26.7 µM
same,TGI,[44],3.85 µM
same,TGI,[45],4.25 µM
same,TGI,[46],3.32 µM
same,TGI,[57],8.31 µM
same,TGI,[58],3.17 µM
same,TGI,[49],> 100 µM
same,TGI,[50],6.02 µM
same,TGI,[51],4.08 µM
same,TGI,[52],3.53 µM
same,TGI,[53],3.5 µM
